Here are results for 21 molecules from patent publication US11339150B2, “Benzimidazole compounds as HDAC6 inhibitors” (OnKure, Inc., priority 2019, dated 2022).

The target in this experiment is T1, HDAC6 (Homo sapiens, UniProt Q9UBN7).
T1 sequence (Q9UBN7 1-1215): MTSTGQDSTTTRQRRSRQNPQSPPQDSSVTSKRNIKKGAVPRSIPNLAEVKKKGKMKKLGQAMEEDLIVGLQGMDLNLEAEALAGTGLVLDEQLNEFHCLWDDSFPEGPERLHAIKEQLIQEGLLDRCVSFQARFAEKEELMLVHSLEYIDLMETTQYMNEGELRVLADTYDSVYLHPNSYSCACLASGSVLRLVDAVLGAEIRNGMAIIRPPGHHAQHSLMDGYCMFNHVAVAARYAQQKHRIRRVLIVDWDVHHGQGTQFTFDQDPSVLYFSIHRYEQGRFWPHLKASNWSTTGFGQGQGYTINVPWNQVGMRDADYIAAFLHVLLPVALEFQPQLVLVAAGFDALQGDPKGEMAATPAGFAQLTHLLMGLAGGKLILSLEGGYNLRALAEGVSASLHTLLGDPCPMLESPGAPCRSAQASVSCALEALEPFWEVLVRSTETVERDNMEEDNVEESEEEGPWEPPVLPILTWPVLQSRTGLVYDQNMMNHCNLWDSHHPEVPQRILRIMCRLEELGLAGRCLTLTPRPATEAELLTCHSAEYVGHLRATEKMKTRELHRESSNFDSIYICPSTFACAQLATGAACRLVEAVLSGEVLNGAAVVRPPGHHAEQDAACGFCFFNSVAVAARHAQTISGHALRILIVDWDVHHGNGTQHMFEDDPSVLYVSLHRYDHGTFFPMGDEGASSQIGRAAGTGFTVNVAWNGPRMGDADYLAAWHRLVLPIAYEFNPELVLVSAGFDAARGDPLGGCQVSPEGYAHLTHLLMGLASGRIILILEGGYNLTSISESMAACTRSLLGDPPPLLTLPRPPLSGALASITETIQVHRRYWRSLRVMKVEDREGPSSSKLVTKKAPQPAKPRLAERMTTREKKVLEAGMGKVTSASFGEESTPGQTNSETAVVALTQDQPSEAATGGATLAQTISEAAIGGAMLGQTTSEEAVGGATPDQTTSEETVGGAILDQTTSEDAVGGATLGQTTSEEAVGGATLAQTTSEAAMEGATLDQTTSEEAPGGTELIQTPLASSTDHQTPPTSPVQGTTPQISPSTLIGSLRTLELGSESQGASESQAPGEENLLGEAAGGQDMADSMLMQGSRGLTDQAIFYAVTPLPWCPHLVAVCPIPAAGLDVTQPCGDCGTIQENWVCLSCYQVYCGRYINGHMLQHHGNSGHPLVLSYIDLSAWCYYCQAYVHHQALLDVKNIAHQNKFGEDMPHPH
The experiment in a line: HDAC assay (fluorogenic substrate), HDAC6. Type of experiment: biochemical. The protocol:
Base Reaction buffer: 50 mM Tris-HCl, pH8.0, 137 mM NaCl, 2.7 mM KCl, and 1 mM MgCl2. Add fresh: 1 mg/ml BSA, 1% DMSO
Fluorogenic HDAC General Substrate: 50 μM, Arg-His-Lys-Lys(Ac)
• 1. Deliver 2× enzyme in wells of reaction plate except No Enzyme control wells. Add buffer in No En wells. • 2. Deliver compounds in 100% DMSO into the enzyme mixture by Acoustic technology (Echo550; nanoliter range). Spin down and pre-incubation. • 3. Deliver 2× Substrate Mixture (Fluorogenic HDAC Substrate and co-factor if applicable) in all reaction wells to initiate the reaction. Spin and shake. • 4. Incubate for 30 min for Class 2A, 1 hr for HDAC1, 2, 3, and 6, and 2 hr for the rest of HDACs and SIRTs at 30° C. with seal. Development Step: • 5. Add Developer with Trichostatin A (or Nicotinamide for SIRTs) to stop the reaction and to generate fluorescent color. • 6. Kinetic measurement for 1.5 hr with Envision with 15 min interval. (Ex/Em=360/460 nm) • 7. Take endpoint reading for analysis after the development reaches plateau.

Each structure is given as a SMILES string.

As for `CN(C)C(=O)Cn1cnc2c(-c3ccccc3)cc(Nc3ncc(-c4nnc(C(F)F)o4)cn3)cc21` [Example 25, 2-(6-((5-(5-(difluoromethyl)-1,3,4-oxadiazol-2-yl)pyrimidin-2-yl)amino)-4-phenyl-1H-benzo[d]imidazol-1-yl)-N,N-dimethylacetamide], the inhibition (as a rule, the change of the read-out against control, counted positive when it falls) at 10 µM is above 90%.
Molecule `O=S(=O)(NCC1CC1)c1cc(Nc2ncc(-c3nnc(C(F)F)o3)cn2)cc2c1ncn2CCO` [Example 26, N-(cyclopropylmethyl)-6-((5-(5-(difluoromethyl)-1,3,4-oxadiazol-2-yl)pyrimidin-2-yl)amino)-1-(2-hydroxyethyl)-1H-benzo[d]imidazole-4-sulfonamide] came in with an inhibition at 10 µM above 90%.
Next, `CNC(=O)n1cnc2c(-c3ccccc3)cc(Nc3ncc(-c4nnc(C(F)F)o4)cn3)cc21` [Example 28, 6-((5-(5-(difluoromethyl)-1,3,4-oxadiazol-2-yl)pyrimidin-2-yl)amino)-N-methyl-4-phenyl-1H-benzo[d]imidazole-1-carboxamide]: above 90%; `CC(CO)n1cnc2c(-c3ccccc3)cc(Nc3ncc(-c4nnc(C(F)F)o4)cn3)cc21` (stereo not drawn) [Example 29, 2-(6-((5-(5-(difluoromethyl)-1,3,4-oxadiazol-2-yl)pyrimidin-2-yl)amino)-4-phenyl-1H-benzo[d]imidazol-1-yl)propan-1-ol]: above 90%.
For `Cc1nc2c(-c3ccccc3)cc(Nc3ncc(-c4nnc(C(F)F)o4)cn3)cc2n1CCO` [Example 30, 2-(6-((5-(5-(difluoromethyl)-1,3,4-oxadiazol-2-yl)pyrimidin-2-yl)amino)-2-methyl-4-phenyl-1H-benzo[d]imidazol-1-yl)ethan-1-ol] the value was above 90%; for `OCCn1cnc2c(-c3ccc(F)cc3F)cc(Nc3ncc(-c4nnc(C(F)F)o4)cn3)cc21` [Example 32, 2-(6-((5-(5-(difluoromethyl)-1,3,4-oxadiazol-2-yl)pyrimidin-2-yl)amino)-4-(2,4-difluorophenyl)-1H-benzo[d]imidazol-1-yl)ethan-1-ol], above 90%; for `OCCn1cnc2c(-c3ccc(F)cc3C(F)(F)F)cc(Nc3ncc(-c4nnc(C(F)F)o4)cn3)cc21` [Example 33, 2-(6-((5-(5-(difluoromethyl)-1,3,4-oxadiazol-2-yl)pyrimidin-2-yl)amino)-4-(4-fluoro-2-(trifluoromethyl)phenyl)-1H-benzo[d]imidazol-1-yl)ethan-1-ol], above 90%.
`CC(C)(C)c1cc(Nc2ncc(-c3nnc(C(F)F)o3)cn2)cc2c1ncn2CCO` [Example 34, 2-(4-(tert-butyl)-6-((5-(5-(difluoromethyl)-1,3,4-oxadiazol-2-yl)pyrimidin-2-yl)amino)-1H-benzo[d]imidazol-1-yl)ethan-1-ol] registered an inhibition at 10 µM above 90%.
For `FC(F)c1nnc(-c2cnc(Nc3cc(-c4ccncc4)c4nc[nH]c4c3)nc2)o1` [Example 35, N-(5-(5-(difluoromethyl)-1,3,4-oxadiazol-2-yl)pyrimidin-2-yl)-4-(pyridin-4-yl)-1H-benzo[d]imidazol-6-amine] the value was above 90%; for `FC(F)c1nnc(-c2cnc(Nc3cc(-c4ccn[nH]4)c4nc[nH]c4c3)nc2)o1` [Example 36, N-(5-(5-(difluoromethyl)-1,3,4-oxadiazol-2-yl)pyrimidin-2-yl)-4-(1H-pyrazol-5-yl)-1H-benzo[d]imidazol-6-amine], above 90%.
For `OCCn1cnc2c(-c3ccn[nH]3)cc(Nc3ncc(-c4nnc(C(F)F)o4)cn3)cc21` [Example 37, 2-(6-((5-(5-(difluoromethyl)-1,3,4-oxadiazol-2-yl)pyrimidin-2-yl)amino)-4-(1H-pyrazol-5-yl)-1H-benzo[d]imidazol-1-yl)ethan-1-ol] the value was above 90%.
For `Fc1c(Nc2ncc(-c3nnc(C(F)F)o3)cn2)cc2[nH]cnc2c1-c1ccccc1` [Example 38, N-(5-(5-(difluoromethyl)-1,3,4-oxadiazol-2-yl)pyrimidin-2-yl)-5-fluoro-4-phenyl-1H-benzo[d]imidazol-6-amine] the value was above 90%.
`Fc1c(Nc2ncc(-c3nnc(C(F)F)o3)cn2)cc(-c2ccccc2)c2nc[nH]c12` [Example 39, N-(5-(5-(difluoromethyl)-1,3,4-oxadiazol-2-yl)pyrimidin-2-yl)-7-fluoro-4-phenyl-1H-benzo[d]imidazol-6-amine]: the inhibition at 10 µM is above 90%.
Next, `Cn1nccc1-c1cc(Nc2ncc(-c3nnc(C(F)F)o3)cn2)cc2[nH]cnc12` [Example 40, N-(5-(5-(difluoromethyl)-1,3,4-oxadiazol-2-yl)pyrimidin-2-yl)-4-(1-methyl-1H-pyrazol-5-yl)-1H-benzo[d]imidazol-6-amine]: above 90%.
For `OCCn1c(C(F)(F)F)nc2c(-c3ccccc3)cc(Nc3ncc(-c4nnc(C(F)F)o4)cn3)cc21` [Example 41, 2-(6-((5-(5-(difluoromethyl)-1,3,4-oxadiazol-2-yl)pyrimidin-2-yl)amino)-4-phenyl-2-(trifluoromethyl)-1H-benzo[d]imidazol-1-yl)ethan-1-ol] the value was above 90%; for `Fc1cc(I)ccc1-c1cc(Nc2ncc(-c3nnc(C(F)F)o3)cn2)cc2[nH]cnc12` [Example 42, N-(5-(5-(difluoromethyl)-1,3,4-oxadiazol-2-yl)pyrimidin-2-yl)-4-(2-fluoro-4-iodophenyl)-1H-benzo[d]imidazol-6-amine], above 90%.
For `FC(F)c1nnc(-c2cnc(Nc3cc(-c4cn[nH]c4)c4nc[nH]c4c3)nc2)o1` [Example 44, N-(5-(5-(difluoromethyl)-1,3,4-oxadiazol-2-yl)pyrimidin-2-yl)-4-(1H-pyrazol-4-yl)-1H-benzo[d]imidazol-6-amine] the value was above 90%; for `Fc1ccc(Cl)cc1-c1cc(Nc2ncc(-c3nnc(C(F)F)o3)cn2)cc2[nH]cnc12` [Example 45, 4-(5-chloro-2-fluorophenyl)-N-(5-(5-(difluoromethyl)-1,3,4-oxadiazol-2-yl)pyrimidin-2-yl)-1H-benzo[d]imidazol-6-amine], above 90%.
`OCCn1cnc2c(-c3cn[nH]c3)cc(Nc3ncc(-c4nnc(C(F)F)o4)cn3)cc21` [Example 46, 2-(6-((5-(5-(difluoromethyl)-1,3,4-oxadiazol-2-yl)pyrimidin-2-yl)amino)-4-(1H-pyrazol-4-yl)-1H-benzo[d]imidazol-1-yl)ethan-1-ol] had an inhibition at 10 µM above 90%.
Next, `C#CCn1cnc2c(-c3ccccc3)cc(Nc3ncc(-c4nnc(C(F)F)o4)cn3)cc21` [Example 47]: above 90%.
For `FC(F)c1nnc(-c2cnc(Nc3cc(-c4ccccc4)c4ncn(CC(F)(F)F)c4c3)nc2)o1` [Example 48, N-(5-(5-(difluoromethyl)-1,3,4-oxadiazol-2-yl)pyrimidin-2-yl)-4-phenyl-1-(2,2,2-trifluoroethyl)-1H-benzo[d]imidazol-6-amine] the value was above 90%.
